Experiment: xn = mol fraction of the nth substance listed

NCCCN + O
viscosity [mPa·s]
Conditions	303.15 K	308.15 K	313.15 K	318.15 K	323.15 K
101 kPa, x1 = 0.05	1.58	1.38	1.227	1.097	–
101 kPa, x1 = 0.0966	2.754	2.355	2.03	–	–
101 kPa, x1 = 0.1458	4.36	3.619	3.031	–	–
101 kPa, x1 = 0.199	6.289	5.088	4.188	–	–
101 kPa, x1 = 0.2473	7.568	6.055	4.93	–	–
101 kPa, x1 = 0.2961	8.219	6.535	5.313	–	–
101 kPa, x1 = 0.3465	7.991	6.401	5.22	–	–
101 kPa, x1 = 0.3974	7.438	6.022	4.946	–	–
101 kPa, x1 = 0.4955	5.878	4.832	4.038	–	–
101 kPa, x1 = 0.5995	4.307	3.644	3.127	–	–
101 kPa, x1 = 0.6969	3.224	2.779	2.419	–	–
101 kPa, x1 = 0.8006	2.501	2.177	1.921	–	–
101 kPa, x1 = 0.8936	1.997	1.762	1.573	–	–
101.33 kPa, x1 = 0.0518	1.637	1.437	1.267	1.127	1.008
101.33 kPa, x1 = 0.1	2.991	2.534	2.174	1.887	1.65
101.33 kPa, x1 = 0.1498	4.882	4.012	3.345	2.827	2.417
101.33 kPa, x1 = 0.2004	6.762	5.446	4.467	3.714	3.132
101.33 kPa, x1 = 0.2498	7.872	6.309	5.128	4.236	3.548
101.33 kPa, x1 = 0.2734	8.088	6.473	5.268	4.351	3.646
101.33 kPa, x1 = 0.2984	8.108	6.502	5.297	4.379	3.662
101.33 kPa, x1 = 0.3248	7.918	6.364	5.199	4.307	3.619
101.33 kPa, x1 = 0.3502	7.614	6.155	5.027	4.189	3.518
101.33 kPa, x1 = 0.3766	7.121	5.774	4.754	3.972	3.354
101.33 kPa, x1 = 0.4041	6.681	5.464	4.509	3.787	3.211
101.33 kPa, x1 = 0.4467	5.911	4.871	4.068	3.445	2.935
